The assay has as its target T1, human GLP-1 receptor (Homo sapiens, UniProt P43220).
T1 construct: expressed in transfected cells
Kind of assay: GLP-1R cAMP Assay (HitHunter cAMP accumulation). The assay is classed as cell-based. As to conditions: cAMP accumulation, CHO cells stably overexpressing human GLP-1 receptor, 30 min treatment; read-out: EC50. The method, then: cAMP accumulation was measured in Chinese hamster ovary (CHO) cells stably overexpressing the human GLP-1 receptor using the HitHunter cAMP Assay for Small Molecules Kit (Eurofins). Briefly, cells were grown in Ham's F12 Nutrient Mix with 10% FBS, and lifted with Cell Dissociation Buffer, Enzyme free, PBS based (ThermoFisher). Cells were pelleted, and resuspended in Hank's buffered saline solution with 10 mM HEPES, and 625 μM 3-isobutyl-1-methylxanthine. The anti-cAMP antibody reagent was then added to cells at a 1:2 ratio and 5 μL of mixture was seeded in 384-well small volume white assay plates, at 10,000 cells/well. Cells were then treated with 50 nL compound using an ECHO 550 acoustic dispenser (Labcyte) in a 20-point dose response format in triplicate for 30 min. Cells were then lysed, and detection reagents added according to the manufacturer's protocol. After overnight incubation, luminescence was measured using a Perkin Elmer Envision plate reader. Dose response curves were analyzed using GraphPad Prism 9.0. […]
Background: Cyclic AMP is a second messenger, typically raised through Gs and lowered through Gi signalling.

The values below come from patent publication US20220396569A1 (Carmot Therapeutics, Inc., priority 2021, published 2022).

T1 sequence (P43220 24-463): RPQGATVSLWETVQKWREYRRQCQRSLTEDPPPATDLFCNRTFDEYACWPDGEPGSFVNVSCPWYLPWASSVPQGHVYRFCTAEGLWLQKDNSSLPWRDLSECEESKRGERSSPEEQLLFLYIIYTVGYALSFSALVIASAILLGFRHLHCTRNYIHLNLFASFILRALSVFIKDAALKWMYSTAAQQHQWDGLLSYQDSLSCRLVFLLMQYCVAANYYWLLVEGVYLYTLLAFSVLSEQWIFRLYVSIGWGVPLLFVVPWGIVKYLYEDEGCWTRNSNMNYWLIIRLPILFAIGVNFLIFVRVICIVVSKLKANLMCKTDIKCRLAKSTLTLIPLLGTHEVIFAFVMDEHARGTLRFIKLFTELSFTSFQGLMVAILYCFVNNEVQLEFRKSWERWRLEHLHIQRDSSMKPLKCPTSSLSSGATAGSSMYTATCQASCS

A word on the EC50: it is the midpoint of the concentration-response curve. Take `O=C(O)c1ccc2nc(CN3CC=C(c4nccc(COc5ccc(Cl)cc5F)n4)C3)n(C[C@@H]3CCO3)c2c1` [Example 435, (S)-2-((3-(4-((4-Chloro-2-fluorophenoxy)methyl)pyrimidin-2-yl)-2,5-dihydro-1H-pyrrol-1-yl)methyl)-1-(oxetan-2-ylmethyl)-1H-benzo[d]imidazole-6-carboxylic acid]: the EC50 was < 50 nM.

For the compound `O=C(O)c1cc(F)c2nc(CN3CC[C@H](Oc4cccc(COc5ccc(Cl)cc5F)c4)C3)n(C[C@@H]3CCO3)c2c1` [Compound 351, 2-{[(3S)-3-{3-[(4-chloro-2-fluorophenoxy)methyl]phenoxy}pyrrolidin-1-yl]methyl}-4-fluoro-1-{[(2S)-oxetan-2-yl]methyl}-1H-1,3-benzodiazole-6-carboxylic acid], the EC50 is < 50 nM.

`O=C(O)c1ccc2nc(CN3CC=C(c4cnc(COc5ccc(Cl)cc5Cl)o4)C3)n(C[C@@H]3CCO3)c2c1` [Example 474, (S)-2-((3-(2-((2,4-Dichlorophenoxy)methyl)oxazol-5-yl)-2,5-dihydro-1H-pyrrol-1-yl)methyl)-1-(oxetan-2-ylmethyl)-1H-benzo[d]imidazole-6-carboxylic acid]: the EC50 is < 50 nM.

In the case of `N#Cc1ccc(OCc2cccc([C@H]3CCN(Cc4nc5ccc(C(=O)O)cc5n4C[C@@H]4CCO4)C3)c2)c(F)c1` [Compound 415, 2-{[(3R)-3-{3-[(4-cyano-2-fluorophenoxy)methyl]phenyl}pyrrolidin-1-yl]methyl}-1-{[(2S)-oxetan-2-yl]methyl}-1H-1,3-benzodiazole-6-carboxylic acid], the EC50 lay in the range of 50 to 500 nM.

For `N#Cc1ccc(OCc2nc([C@@H]3CCN(Cc4nc5c(F)cc(C(=O)O)cc5n4C[C@@H]4CCO4)C3)ccc2F)c(F)c1` [Compound 454, 2-{[(3R)-3-{6-[(4-cyano-2-fluorophenoxy)methyl]-5-fluoropyridin-2-yl}pyrrolidin-1-yl]methyl}-4-fluoro-1-{[(2S)-oxetan-2-yl]methyl}-1H-1,3-benzodiazole-6-carboxylic acid], the EC50 was < 50 nM.

Consider `CCn1cncc1Cn1c(CN2CCC(Cn3ccc(COc4ccc(Cl)cc4Cl)n3)CC2)nc2ccc(C(=O)O)cc21` [Example 281, 2-((4-((3-((2,4-Dichlorophenoxy)methyl)-1H-pyrazol-1-yl)methyl)piperidin-1-yl)methyl)-1-((1-ethyl-1H-imidazol-5-yl)methyl)-1H-benzo[d]imidazole-6-carboxylic acid], for which the EC50 was < 50 nM.

With `N#Cc1ccc(OCc2nc([C@@]34C[C@@H]3CN(Cc3nc5c(F)cc(C(=O)O)cc5n3C[C@@H]3CCO3)C4)ccc2F)c(F)c1` [Compound 531, 2-{[(1S,5S)-1-{6-[(4-cyano-2-fluorophenoxy)methyl]-5-fluoropyridin-2-yl}-3-azabicyclo[3.1.0]hexan-3-yl]methyl}-4-fluoro-1-{[(2S)-oxetan-2-yl]methyl}-1H-1,3-benzodiazole-6-carboxylic acid], the EC50 was < 50 nM.

As to `O=C(O)c1ccc2nc(CN3CC[C@H](c4cccc(COc5ccc(Cl)cc5Cl)c4)C3)n(C[C@@H]3CCO3)c2c1` (single isomer, unassigned) [Example 406], the EC50 was < 50 nM.

Regarding `CCn1cncc1Cn1c(CN2CCC(Cc3cccc4c3O[C@@](C)(c3ccc(Cl)cc3F)O4)CC2)nc2ccc(C(=O)O)cc21` (single isomer, unassigned) [Compound 223], the EC50 was < 50 nM.

For the compound `O=C(O)c1ccc2nc(CN3CC=C(c4nc(COc5ccc(Cl)cc5F)ccc4F)C3)n(C[C@@H]3CCO3)c2c1` [Compound 436], the EC50 is < 50 nM.

In the case of `N#Cc1ccc(OCc2cccc([C@H]3CCN(Cc4nc5c(F)cc(C(=O)O)cc5n4C[C@@H]4CCO4)C3)c2)c(F)c1` [Compound 444, 2-{[(3R)-3-{3-[(4-cyano-2-fluorophenoxy)methyl]phenyl}pyrrolidin-1-yl]methyl}-4-fluoro-1-{[(2S)-oxetan-2-yl]methyl}-1H-1,3-benzodiazole-6-carboxylic acid], the EC50 is > 500 nM.
